Experimental data from publication PMC5618418, “Pharmacokinetics of Jaspine B and Enhancement of Intestinal Absorption of Jaspine B in the Presence of Bile Acid in Rats” (Marine Drugs, 2017).

Assays:
in vitro = in vitro ADME, rat
Protocol: For the measurement of the effect of TC on the tight junction of biological membranes, the permeability of 50 μM Lucifer yellow, a marker of paracellular permeation, was measured in the presence of TC (0, 0.1, 1, 10, 100 mM). Prior to the experiment, ileal segments from SD rats (about 20 cm) were placed in the chambers and were submerged in fresh, prewarmed (37 °C) HBSS for 15 min for acclimatization. The chambers were continuously bubbled with carbogen gas (5% CO2/ 95% O2) during the experiment. The experiments began by replacing the HBSS with HBSS containing 50 μM Lucifer yellow and various concentrations of TC on the apical side (A) and adding fresh HBSS to the basal side (B). Aliquots (400 μL) of media were withdrawn from the receiver compartment (B) after 0, 20, 40, 60, and 80 min, and the volume of liquid in the receiver compartment was replenished with fresh, prewarmed HBSS after each sampling. Aliquots (200 μL) of all samples were used for the determination of Lucifer yellow concentration. The fluorescence of Lucifer yellow in the samples was measured using a fluorescence spectrophotometer (Infinite 200 PRO, Tecan, Switzerland) with excitation at 425 nm and emission at 535 nm.
A to B and B to A permeability of Jaspine B was measured in the presence of TC and rat bile. One mL of HBSS containing 50 μM Jaspine B and 10 mM TC or 20% bile was added to the donor side and 1 mL of preheated fresh HBSS was added to the receiver side. Aliquots (400 μL) of media were withdrawn at 0, 20, 40, 60, and 80 min from the receiver compartment as described above. Aliquots (50 μL) of all samples were stored at −80 °C until analysis.
Aliquots (50 μL) of all samples were added to 250 μL of acetonitrile containing 0.5 ng/mL of berberine. After vortexing for 10 min and centrifugation at 13,200 rpm for 5 min, 2 μL of the supernatant was injected directly into the LC-MS/MS system.
The apparent permeability (Papp) of the drug was calculated by dividing the initial drug transport rate (dQ/dt, pmol/min) by the initial drug concentration in the donor compartment of the insert (Co) multiplied by the surface area of the insert (A, cm^2): (3) Papp=dQ/dt×1/ACo

[1] = Metabolic stability in rat liver microsomes; type: in vitro ADME; conditions: 1 μM, rat liver microsomes, NADPH-generating system, 60 min, 37 °C
Protocol: Jaspine B (1 μM) was reconstituted in 100 mM potassium phosphate buffer (pH 7.4) containing 0.25 mg of RLMs and was pre-incubated for 5 min at 37 °C. The reaction was initiated by adding an NADPH-generating system (1.3 mM β-NADP, 3.3 mM glucose-6-phosphate, 3.3 mM MgCl2, and 1.0 unit/mL glucose-6-phosphate dehydrogenase) and then incubated (final volume 100 μL) for 0, 15, 30, and 60 min at 37 °C in a shaking water bath. The reaction was stopped by placing the incubation tubes on ice and adding 200 μL of ice-cold acetonitrile containing 0.5 ng/mL of berberine. After vortexing for 10 min and centrifugation at 13,200 rpm for 5 min, 2 μL of the supernatant was injected directly into the LC-MS/MS system.

Lucifer yellow [reference compound]
increase of permeability caused by tight junction opening (in vitro): ~ 2.8 fold
permeability change (in vitro): sharp increase

CN(C)C(=N)N=C(N)N [metformin, reference compound]
percentage remaining [1]: 63.4%
